Experiments:
[1] = Pharmacokinetic assay in beagle dogs; assay type: in vivo; details: for AUC(0-inf) / AUC(0-t) / Cmax / Tmax / half-life: dog, in vivo, oral, capsule, 5 mg/kg as compound of Formula (II)
Protocol: The pharmacokinetic properties of the compound of Formula (II) and crystalline form I of the invention were assessed in beagle dogs: each group having 3 beagle dogs was administered by oral in a capsule form. The dosage amount of crystalline form I was converted and determined according to the compound of Formula (II) at a dosage of 5 mg/kg.

EGFR = EGFR (Homo sapiens, UniProt P00533); details: as disclosed in CN 103102344 A; cited from earlier work
EGFR, sequence (P00533 25-1210, species assumed): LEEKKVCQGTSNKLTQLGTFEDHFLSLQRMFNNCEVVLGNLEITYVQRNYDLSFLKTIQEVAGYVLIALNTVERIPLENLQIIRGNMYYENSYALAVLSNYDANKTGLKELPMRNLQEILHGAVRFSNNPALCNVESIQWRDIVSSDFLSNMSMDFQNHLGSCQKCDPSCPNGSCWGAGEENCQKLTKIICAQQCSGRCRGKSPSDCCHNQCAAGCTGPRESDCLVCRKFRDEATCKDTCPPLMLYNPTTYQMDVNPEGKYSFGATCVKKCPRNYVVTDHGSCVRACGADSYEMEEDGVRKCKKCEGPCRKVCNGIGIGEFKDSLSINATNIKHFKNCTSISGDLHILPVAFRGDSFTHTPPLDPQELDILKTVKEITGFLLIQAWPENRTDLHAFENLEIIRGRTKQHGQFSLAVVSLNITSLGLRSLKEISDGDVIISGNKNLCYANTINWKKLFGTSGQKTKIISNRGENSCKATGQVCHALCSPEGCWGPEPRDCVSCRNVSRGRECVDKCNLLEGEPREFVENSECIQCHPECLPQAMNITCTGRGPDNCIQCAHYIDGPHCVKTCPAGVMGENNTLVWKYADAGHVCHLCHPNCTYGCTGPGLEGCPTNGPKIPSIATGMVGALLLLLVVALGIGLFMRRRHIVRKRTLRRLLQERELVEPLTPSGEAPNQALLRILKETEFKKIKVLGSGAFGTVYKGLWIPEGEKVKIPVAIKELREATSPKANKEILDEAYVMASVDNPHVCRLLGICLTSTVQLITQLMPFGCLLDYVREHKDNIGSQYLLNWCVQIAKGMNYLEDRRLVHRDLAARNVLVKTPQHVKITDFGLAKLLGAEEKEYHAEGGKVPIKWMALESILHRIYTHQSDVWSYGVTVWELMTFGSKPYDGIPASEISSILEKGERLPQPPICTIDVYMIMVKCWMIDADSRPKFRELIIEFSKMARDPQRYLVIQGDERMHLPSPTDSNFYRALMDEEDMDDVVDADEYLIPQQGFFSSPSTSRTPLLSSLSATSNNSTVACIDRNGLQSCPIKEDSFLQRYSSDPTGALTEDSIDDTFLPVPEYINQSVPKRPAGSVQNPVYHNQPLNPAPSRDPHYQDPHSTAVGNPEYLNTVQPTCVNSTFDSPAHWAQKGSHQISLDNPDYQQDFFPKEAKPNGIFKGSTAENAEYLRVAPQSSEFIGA

[2] = Accelerated test (40±2° C./75%±5% RH, six months); assay type: physicochemical; details: for Impurities (total impurities, %) / Moisture (%): 40±2° C./75%±5% RH
Protocol: (§1) The purity of the compound used in the stability test or accelerated test is measured by Aglient 1200 high performance liquid chromatography with VWD detector. The chromatographic column model is ZORBAX Extend-C18 (4.6×150 mm, […]), the detection wavelength is 250 nm, the flow rate is 1.0 mL/min, the column temperature is 40° C., and the mobile phase is 10 mM KH2PO4 (pH=7.5)-acetonitrile (v/v=55/45).
According to “Guidelines for the stability test of raw materials and preparations” (Chinese Pharmacopoeia, 2015, 4th edition, general rules 9001), the accelerated test of crystalline form I was practiced as follows:
Medicinal low density polyethylene bag (the size was 140*120*0.104 mm^3, the manufacture was Tianjin Litian Medicine Packing Material Co., Ltd, and the batch number was 121238.) was used as inner package material, and the bag was sealed by nylon cable ties; and paper tube was used as a packaging material. The packaged samples were placed in a constant temperature and humidity test chamber (40±2° C./75%±5% RH) for six months for accelerated test. Sampling at the end of 1, 2, 3 or 6 months for testing the moisture content of the sample by using karl fischer titration, the content of impurities was measured by HPLC.

[3] = Hygroscopic test (Chinese Pharmacopoeia 2010, appendix XIX J); assay type: physicochemical; details: 25° C.±1° C., relative humidity 80%±2%, 24 h; for Hygroscopic weight gain: dimethanesulfonate monohydrate
Source text: 1. Instruments: one hundred thousandth electronic balance, type: XP205DR, manufacturer: Mettler.
2. Test method deriving from Chinese Pharmacopoeia 2010, appendix XIX J: Guideline on pharmaceutical hygroscopic test. Specific method is described as follows:
1) Placing a dried glass-stoppered, weighing bottle (outer diameter: 50 mm, height: 15 mm) in a thermostatic drier with saturated aqueous ammonium chloride or ammonium sulfate solution in the bottom at the previous day of the test maintaining the temperature at 25° C.±1° C., and the glass-stoppered, weighing bottle was weighed precisely.
2) Taking and weighing an appropriate amount of the sample (m1), and placing the sample into the weighing bottle with thickness of about 1 mm.
3) Opening the weighing bottle, and placing the glass stopper with the opened weighing bottle in a constant temperature and humidity condition for 24 h.
4) Sealing the weighing bottle with glass stopper, and the weighing bottle sealed with glass stopper was weighed precisely (m2). The percentage (%) of weight gain was calculated. Percentage (%) of weight gain=(m2−m1−m0)/m1×100%
5) The hygroscopic features and definition of hygroscopic weight gain are summarized in table 3 (deriving from Chinese Pharmacopoeia 2010, appendix XIX J: Guideline on pharmaceutical hygroscopic test, test conditions: 25° C.±1° C., Relative Humidity 80%±2%).

[4] = Stability test (high temperature, high humidity, illumination); assay type: physicochemical
Protocol: as §1
According to “Guidelines for the stability test of raw materials and preparations” (Chinese Pharmacopoeia, 2015, 4th edition, general rules 9001), the stability of crystalline form I was tested as follows:
Appropriate amount of sample was taken into the flat weighing bottle to form a thin layer of no more than 5 mm thick. […] The content of impurities was tested by HPLC.

[5] = oral capsule, individual data analysis

COc1cc2ncnc(Nc3ccc(F)c(Cl)c3)c2cc1OCCCN1C[C@@H]2OCCO[C@@H]2C1 [Compound of Formula (II), 4-[(3-chloro-4-fluorophenyl)amino]-7-methoxy-6-[3-[(1R,6S)-2,5-dioxa-8-azabicyclo [4.3.0]nonan-8-yl]propoxy]quinazoline]
AUC(0-inf) [1]: 886 ng·h/mL
AUC(0-t) [1]: 825 ng·h/mL
Cmax [1]: 125 ng/mL
Tmax [1]: 1.67 h
half-life [1]: 3.62 h
inhibition activity against EGFR (EGFR): high inhibition activity

COc1cc2ncnc(Nc3ccc(F)c(Cl)c3)c2cc1OCCCN1C[C@@H]2OCCO[C@@H]2C1.CS(=O)(=O)O.CS(=O)(=O)O.O [Crystalline form I, 4-[(3-chloro-4-fluorophenyl)amino]-7-methoxy-6-[3-[(1R,6S)-2,5-dioxa-8-azabicyclo[4.3.0]nonan-8-yl]propoxy]quinazoline dimethanesulfonate monohydrate]
Impurities (total impurities, %) ([2]; 0 day): 0.18%
Moisture (%) ([2]; 0 day): 2.79%
Impurities (total impurities, %) ([2]; One month): 0.18%
Moisture (%) ([2]; One month): 2.92%
Impurities (total impurities, %) ([2]; Six months): 0.17%
Moisture (%) ([2]; Six months): 2.86%
Impurities (total impurities, %) ([2]; Three months): 0.18%
Moisture (%) ([2]; Three months): 3.09%
Impurities (total impurities, %) ([2]; Two months): 0.17%
Moisture (%) ([2]; Two months): 2.87%
quality (stability) ([2]; accelerated test condition for six months, low density polyethylene bag as inner package): stable
AUC(0-inf) [1]: 1470 ng·h/mL
AUC(0-t) [1]: 1450 ng·h/mL
Cmax [1]: 231 ng/mL
Tmax [1]: 1.33 h
half-life [1]: 3.65 h
Tmax time compared with compound of Formula (II) ([1]; oral capsule): earlier than compound of Formula (II)
absorption compared with compound of Formula (II) [1, 5]: faster absorption
exposure level compared with compound of Formula (II) [1, 5]: higher exposure level
Hygroscopic feature [3]: almost no hygroscopicity
Hygroscopic weight gain [3]: 0.074%
Hygroscopic weight gain ([3]; listed as crystalline form I): 0.074%
Impurities (total impurities, %) ([4]; 0 day): 0.13%
Impurities (total impurities, %) ([4]; High humidity 25° C. ± 2° C./92.5% RH, 5 days): 0.14%
Impurities (total impurities, %) ([4]; High humidity 25° C. ± 2° C./92.5% RH, 10 days): 0.16%
Impurities (total impurities, %) ([4]; High temperature 60° C. ± 2° C., 5 days): 0.12%
Impurities (total impurities, %) ([4]; High temperature 60° C. ± 2° C., 10 days): 0.14%
Impurities (total impurities, %) ([4]; Illumination 4500 ± 500 lx, 5 days): 0.13%
Impurities (total impurities, %) ([4]; Illumination 4500 ± 500 lx, 10 days): 0.13%
Impurities (total impurities, %) ([4]; Illumination 4500 ± 500 lx, 15 days): 0.14%
change of impurity ([4]; high temperature 10 days, high humidity 10 days, illumination 15 days): no obvious change
quality (stability) ([4]; high temperature, high humidity or illumination condition): stable
